The results in this text go back to the supplement of paper PMC11281043.

The subject of test [1] is Danio rerio embryo/larva. In words: BMC edema; higher = less potent. The note with it: exposure: 6-8 hpf to 5 dpf, scored at 6 dpf. The method, then: (§1)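 Zebrafish embryos (with chorion) were exposed from 6-8 hpf to each PFAS (8-point half-log series, top concentration up to 100 uM, 0.4% DMSO, sealed plates, 26 C; n = 6 embryos per concentration), rinsed at 5 dpf and scored at 6 dpf by two blinded observers for mortality, hatching and malformations. Endpoint scores are the % of living larvae affected (dead larvae excluded; […]). Curves were fitted with tcpl (cutoff 16%), and the BMC is the concentration at a benchmark response of 21.6%.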

Test [2] relates to Danio rerio embryo/larva. In words: BMC craniofacial defects; higher = less potent. The note with it: exposure: 6-8 hpf to 5 dpf, scored at 6 dpf. The method, then:
as §1

Test [3] relates to Danio rerio embryo/larva. Kind of test: BMC swim bladder non-inflation; higher = less potent. The note with it: exposure: 6-8 hpf to 5 dpf, scored at 6 dpf. The method, then: as §1
The test system of test [4] is Danio rerio embryo/larva. Kind of test: BMC any abnormality; max tested concentration (log10 uM): 2; higher = less potent. The note with it: exposure: 6-8 hpf to 5 dpf, scored at 6 dpf. The method, then:
as §1

Test [5] deals with Danio rerio embryo/larva. In words: max % larvae unhatched across tested concentrations; max tested concentration (log10 uM): 2; higher = more toxic. Conditions: exposure: 6-8 hpf to 5 dpf, scored at 6 dpf.
Test [6] deals with Danio rerio embryo/larva. Kind of test: max % larvae dead across tested concentrations; max tested concentration (log10 uM): 2; higher = more toxic; extreme values may be limits of the assay. The note with it: exposure: 6-8 hpf to 5 dpf, scored at 6 dpf.
In test [7] the test system is Danio rerio embryo/larva. In words: max % larvae with any abnormality across tested concentrations; max tested concentration (log10 uM): 2; higher = more toxic; extreme values may be limits of the assay. Conditions: exposure: 6-8 hpf to 5 dpf, scored at 6 dpf.
Test [8] concerns Danio rerio embryo/larva. In words: BMC mortality; max tested concentration (log10 uM): 2; higher = less potent. The note with it: exposure: 6-8 hpf to 5 dpf, scored at 6 dpf. As to the method:
as §1

The test system of test [9] is Danio rerio embryo/larva. In words: BMC abnormal position; higher = less potent. The note with it: max tested concentration (log10 uM): 1.47712; exposure: 6-8 hpf to 5 dpf, scored at 6 dpf. As to the method: as §1
The mark [10] stands for this setting: max tested concentration (log10 uM): 2.
Where [11] appears, read: max tested concentration (log10 uM): 0.477121.
Where [12] appears, read: max tested concentration (log10 uM): 1.47712.
Setting [13] is: max tested concentration (log10 uM): 1.

SMILES strings stand for the structures.

The compound `FC(F)(I)C(F)(F)C(F)(F)C(F)(F)I` [Perfluoro-1,4-diiodobutane] registered a BMC edema in the test with Danio rerio embryo/larva [1] (setting [10]) of 20.6 µM. Also, the BMC craniofacial defects in the test on Danio rerio embryo/larva [2] (setting [10]) is 74.2 µM. Moreover, the “BMC swim bladder non-inflation” value with Danio rerio embryo/larva [3] (setting [10]) was found to be 25.6 µM. In addition, the BMC any abnormality with Danio rerio embryo/larva [4] came to 14.8 µM. Further, the “max % larvae unhatched across tested concentrations” value in the test on Danio rerio embryo/larva [5] worked out at 0%. For the same compound, the “max % larvae dead across tested concentrations” value in the test on Danio rerio embryo/larva [6] is 16.7%. In addition, in the test with Danio rerio embryo/larva [7], the max % larvae is 70.8%.

`OC(C(F)(F)F)(C(F)(F)F)C(O)(C(F)(F)F)C(F)(F)F` [Perfluoropinacol] yielded a BMC edema in the test on Danio rerio embryo/larva [1] (setting [11]) of 2.52 µM. In the test with Danio rerio embryo/larva [2] (setting [11]), this compound returned a BMC craniofacial defects of 2.47 µM. Besides, in the test on Danio rerio embryo/larva [3] (setting [11]), the “BMC swim bladder non-inflation” value was determined as 2.28 µM. The compound further had a BMC any abnormality in the test with Danio rerio embryo/larva [4] of 1.94 µM. Also, the “max % larvae unhatched across tested concentrations” value with Danio rerio embryo/larva [5] amounted to 0%. For the same compound, in the test on Danio rerio embryo/larva [7], the max % larvae came out at 100%.

As to `O=C(CC(=O)C(F)(F)C(F)(F)C(F)(F)F)c1cccs1` [(Perfluorobutyryl)-2-thenoylmethane], the BMC mortality with Danio rerio embryo/larva [8] was 6.44 µM. In the test on Danio rerio embryo/larva [4], this compound gave a BMC any abnormality of 3.11 µM. For the same compound, the “max % larvae unhatched across tested concentrations” value in the test with Danio rerio embryo/larva [5] is 0%. Further, the “max % larvae dead across tested concentrations” value in the test on Danio rerio embryo/larva [6] worked out at 100%. This compound also yielded a max % larvae in the test with Danio rerio embryo/larva [7] of 100%.

For the compound `O=C(O)C(F)(F)C(F)(F)C(F)(F)C(F)(F)C(F)(F)C(F)(F)C(F)(F)C(F)(F)C(F)(F)C(F)(F)F` [Perfluoroundecanoic acid], the BMC edema in the test with Danio rerio embryo/larva [1] (setting [11]) was 2.74 µM. The same compound had a BMC mortality in the test on Danio rerio embryo/larva [8] of 14.5 µM. This compound also gave a BMC any abnormality with Danio rerio embryo/larva [4] of 2.94 µM. For the same compound, the “max % larvae unhatched across tested concentrations” value in the test with Danio rerio embryo/larva [5] worked out at 0%. Moreover, in the test on Danio rerio embryo/larva [6], the “max % larvae dead across tested concentrations” value came to 100%. The compound further registered a max % larvae with Danio rerio embryo/larva [7] of 100%.

For the compound `C=CC(=O)OCC(F)(F)C(F)(F)C(F)(F)COC(=O)C=C` [1H,1H,5H,5H-Perfluoro-1,5-pentanediol diacrylate], in the test on Danio rerio embryo/larva [8], the BMC mortality is 8.77 µM. This compound returned a BMC any abnormality in the test on Danio rerio embryo/larva [4] of 7.62 µM. Moreover, in the test on Danio rerio embryo/larva [5], the “max % larvae unhatched across tested concentrations” value turned out to be 0%. Besides, the “max % larvae dead across tested concentrations” value in the test on Danio rerio embryo/larva [6] was 100%. Further, the max % larvae in the test on Danio rerio embryo/larva [7] came to 100%.

Regarding `O=C(O)C(F)(F)C(F)(F)C(F)(F)C(F)(F)C(F)(F)C(F)(F)C(F)(F)C(F)(F)C(F)(F)F` [Perfluorodecanoic acid], in the test on Danio rerio embryo/larva [3] (setting [12]), the “BMC swim bladder non-inflation” value amounted to 10.1 µM. The same compound yielded a BMC mortality in the test on Danio rerio embryo/larva [8] of 11.2 µM. The compound further gave a BMC any abnormality in the test with Danio rerio embryo/larva [4] of 9.34 µM. In the test on Danio rerio embryo/larva [5], the “max % larvae unhatched across tested concentrations” value stood at 0%. Further, the “max % larvae dead across tested concentrations” value in the test with Danio rerio embryo/larva [6] was determined as 100%. The same compound showed a max % larvae in the test on Danio rerio embryo/larva [7] of 100%.

In turn, `O=C(O)CCC(F)(F)C(F)(F)C(F)(F)C(F)(F)C(F)(F)F` [2H,2H,3H,3H-Perfluorooctanoic acid] registered a BMC edema with Danio rerio embryo/larva [1] (setting [12]) of 9.38 µM. The BMC abnormal position with Danio rerio embryo/larva [9] was determined as 12.2 µM. In addition, in the test with Danio rerio embryo/larva [3] (setting [12]), the “BMC swim bladder non-inflation” value is 9.28 µM. In the test on Danio rerio embryo/larva [8], this compound gave a BMC mortality of 24.8 µM. For the same compound, the BMC any abnormality in the test with Danio rerio embryo/larva [4] came to 8.77 µM. Also, in the test on Danio rerio embryo/larva [5], the “max % larvae unhatched across tested concentrations” value was found to be 0%. Further, the “max % larvae dead across tested concentrations” value in the test on Danio rerio embryo/larva [6] was found to be 100%. For the same compound, the max % larvae with Danio rerio embryo/larva [7] amounted to 100%.

Compound `O=C(O)CCC(F)(F)C(F)(F)C(F)(F)C(F)(F)C(F)(F)C(F)(F)F` [3-(Perfluorohexyl)propanoic acid] had a BMC edema in the test with Danio rerio embryo/larva [1] (setting [13]) of 9.01 µM. The BMC mortality in the test on Danio rerio embryo/larva [8] was 19.5 µM. This compound also had a BMC any abnormality with Danio rerio embryo/larva [4] of 8.2 µM. For the same compound, the “max % larvae unhatched across tested concentrations” value with Danio rerio embryo/larva [5] turned out to be 0%. The “max % larvae dead across tested concentrations” value in the test with Danio rerio embryo/larva [6] was 100%. Also, the max % larvae with Danio rerio embryo/larva [7] came out at 100%.

Compound `CCNS(=O)(=O)C(F)(F)C(F)(F)C(F)(F)C(F)(F)C(F)(F)C(F)(F)C(F)(F)C(F)(F)F` [N-Ethylperfluorooctane sulfonamide] displayed a BMC edema with Danio rerio embryo/larva [1] (setting [13]) of 2.88 µM. In the test with Danio rerio embryo/larva [3] (setting [13]), the “BMC swim bladder non-inflation” value was determined as 3.13 µM. For the same compound, in the test with Danio rerio embryo/larva [8], the BMC mortality came to 19.5 µM. The compound further returned a BMC any abnormality with Danio rerio embryo/larva [4] of 2.37 µM. Moreover, in the test with Danio rerio embryo/larva [5], the “max % larvae unhatched across tested concentrations” value stood at 0%. Also, the “max % larvae dead across tested concentrations” value in the test with Danio rerio embryo/larva [6] is 100%. This compound had a max % larvae in the test on Danio rerio embryo/larva [7] of 100%.
